Results published in patent publication US11352350B2, “IRAK degraders and uses thereof” (Kymera Therapeutics, Inc., priority 2018, dated 2022).
Where two headings read alike, the source gives them in different places.

Tests used:
IRAK4 = IRAK4 (Homo sapiens (Human), UniProt Q9NWZ3); assay: IRAK4 MSD degradation in OCI-LY10; type: cell-based
Description: Degradation of IRAK4 in OCI-LY10 was quantitatively measured using Meso Scale Discovery technology. […] Compounds were then added to the assay plates with a final top concentration of 1 to 10 μM in a 1:3 dilution series with total of 8 doses. The assay plates were then incubated for 4 to 24 hours at 37° C. under 5% CO2. […] To prepare MSD assay plates (Meso Scale Discovery Catalog number L15XA-3), the plates were coated with […] capture antibody (mouse Anti-IRAK4 antibody [2H9], ab119942) in PBS, at 40 μL/well. […] Cell lysates were then added to MSD assay plates and the plates were incubated at room temperature for 1 hour. The plates were then washed 3 times with 150 μL/well TBST buffer and 25 μL/well primary detection antibody (rabbit Anti-IRAK4 antibody [Y279], from Abcam. Catalog number ab32511, […]). The assay plates were then incubated at room temperature for 1 hour, washed 3 times with 150 μL/well TBST buffer and 25 µL/well secondary detection antibody, SULFO-TAG anti-rabbit antibody were added (anti rabbit antibody from Meso Scale Discovery, Catalog number R32AB-1, 1 μg/mL). The assay plates were then incubated at room temperature for 1 hour, washed 3 times with 150 μL/well TB ST buffer, and 150 μL/well MSD reading buffer (Meso Scale Discovery catalog number R92TC-2) was added. The plates were then analyzed by a MSD reader (Meso Scale Discovery, Model Quick Plex SQ 120). The data was then analyzed by software Prism 7.0 from GraphPad and the dose-depended IRAK4 degradation were fit using a three-parameter logistic equation to calculate DC50.

OCI-LY10 = assay: CTG Cell Viability Assay - OCI-LY10; type: cell-based, human; conditions: Homo sapiens, OCI-Ly10, 96 h, OCI-LY10, 4 days; read-out: CTG Cell Viability Assay - OCI-LY10: Average external-IC50
Description: Compound-mediated viability effect on OCI-LY10 or TMD8 was quantitatively determined using the CellTiter-Glo® Luminescent Cell Viability Assay kit from Promega (Catalog number G7570) following manufacturer's recommended procedures. […] Compounds were then added to the assay plate with final top concentration of 10 μM and 1:3 dilution series with total of 9 doses. The final DMSO concentration was normalized to 0.2%. The assay plates were incubated at 37° C. for 4 days under 5% CO2. Then the assay plate was equilibrated at room temperature for 10 minutes. […] The data was then analyzed by software Prism 7.0 from GraphPad and the dose response curves were fit using a three-parameter logistic equation to calculate IC50.

[1] = OCI-LY10, 4 hrs, MSD, read-out: IRAK4 MSD degradation in OCI-LY10 at 4 hrs: Average external-Abs DC50
[2] = OCI-LY10, 24 hrs, MSD, read-out: IRAK4 MSD degradation in OCI-LY10 at 24 hrs: Average external-Abs DC50
[3] = OCI-LY10, 4 hrs, read-out: IRAK4 MSD degradation in OCI-LY10 at 4 hrs: DC50

Sequence of IRAK4 (Q9NWZ3 whole entry): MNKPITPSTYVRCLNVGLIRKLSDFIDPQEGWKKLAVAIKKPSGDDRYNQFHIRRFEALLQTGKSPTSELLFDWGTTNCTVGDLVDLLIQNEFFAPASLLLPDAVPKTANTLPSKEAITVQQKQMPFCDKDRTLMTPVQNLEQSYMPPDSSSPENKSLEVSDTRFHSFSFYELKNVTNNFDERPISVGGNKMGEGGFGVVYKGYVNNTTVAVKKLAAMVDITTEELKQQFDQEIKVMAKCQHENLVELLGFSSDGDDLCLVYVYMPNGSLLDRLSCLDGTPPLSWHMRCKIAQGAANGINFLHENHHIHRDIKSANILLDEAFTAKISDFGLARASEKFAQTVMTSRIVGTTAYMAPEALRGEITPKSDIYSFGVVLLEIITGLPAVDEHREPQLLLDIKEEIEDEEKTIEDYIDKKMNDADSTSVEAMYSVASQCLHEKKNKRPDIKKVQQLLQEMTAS

SMILES | DC50 (IRAK4; [1]) [nM] | DC50 (IRAK4; [2]) [nM] | IC50 (OCI-LY10) [nM] | DC50 (IRAK4; [3]) [nM] | DC50 (IRAK4; OCI-LY10, 24 hrs, read-out: IRAK4 MSD degradation in OCI-LY10 at 24 hrs: DC50) [nM]
O=C1CCC(N2C(=O)c3cccc(NCCCOC4CCN(C[C@H]5CC[C@H](n6cc(NC(=O)c7cnn8ccc(N9C%10COCC9C%10)nc78)c(C(F)F)n6)CC5)CC4)c3C2=O)C(=O)N1 (some centres unmarked) [I-345] | 100 to 1000 | 10 to 100 | < 50 |  | 
CN(C[C@H]1CC[C@H](n2cc(NC(=O)c3coc(-c4ccnc(NCC5CC5)c4)n3)c(C(F)F)n2)CC1)C1CCN(Cc2ccnc3c2c2ccccc2n3C2CCC(=O)NC2=O)CC1 (some centres unmarked) [I-241] | 10 to 100 |  | 500 to 1000 |  | 
CN(CCCCCCCNC(=O)c1ccc(CNCc2ccc(-c3ccc4c(cnn4CC4CC4)c3)cc2)cc1)C[C@H]1CC[C@H](n2cc(NC(=O)c3coc(-c4ccnc(NCC5CC5)c4)n3)c(C(F)F)n2)CC1 [I-135] | 100 to 1000 | > 1000 | > 1000 |  | 
CC[C@@H]1[C@H](F)C(=O)N[C@@H]1COc1ccc(-c2ncn(CN(C)CCCOCCCc3cccc4c3n(C)c(=O)n4C3CCC(=O)NC3=O)n2)c2cc(C(N)=O)c(OC)cc12 (some centres unmarked) [I-188] | 100 to 1000 | 100 to 1000 | > 1000 |  | 
CN(C[C@H]1CC[C@H](n2cc(NC(=O)c3cnn4ccc(N5C[C@H]6CC5CO6)nc34)c(C(F)F)n2)CC1)C1CCC2(CC1)CC(Nc1cccc3c1C(=O)N(C1CCC(=O)NC1=O)C3=O)C2 (some centres unmarked) [I-454] |  |  | 50 to 100 | 100 to 1000 | 10 to 100
C[C@@H](CCNc1cccc2c1C(=O)N(C1CCC(=O)NC1=O)C2=O)OC1CCN(C[C@H]2CC[C@H](n3cc(NC(=O)c4cnn5ccc(N6C[C@H]7C[C@@H]6CO7)nc45)c(C(F)F)n3)CC2)CC1 (some centres unmarked) [I-551] |  |  | < 50 | 100 to 1000 | 
O=C1CCC(N2C(=O)c3cccc(NCCCOCCCS(=O)(=O)NC(=O)[C@H]4CC[C@H](n5cc(NC(=O)c6cnn7ccc(N8C[C@H]9CC8CO9)nc67)c(C(F)F)n5)CC4)c3C2=O)C(=O)N1 (some centres unmarked) [I-440] | 100 to 1000 | > 1000 | > 1000 |  | 
O=C1CCC(N2C(=O)c3cccc(NCCCOC4CCN(C[C@H]5CC[C@H](n6cc(NC(=O)c7cnn8ccc(N[C@@H]9CCCC[C@@H]9O)nc78)c(C(F)F)n6)CC5)CC4)c3C2=O)C(=O)N1 (some centres unmarked) [I-294] | 10 to 100 |  | < 50 |  | 
CN(CCC1CCN(C(=O)c2ccc(CNCc3ccc(-c4ccc5c(cnn5CC5CC5)c4)cc3)cc2)CC1)C[C@H]1CC[C@H](n2cc(NC(=O)c3coc(-c4ccnc(NCC5CC5)c4)n3)c(C(F)F)n2)CC1 [I-134] | > 1000 | > 1000 | > 1000 |  | 
Cc1nc2cccc(NCCCOC3CCN(C[C@H]4CC[C@H](n5cc(NC(=O)c6cnn7ccc(N8CCOCC8)nc67)c(C(F)F)n5)CC4)CC3)c2c(=O)n1C1CCC(=O)NC1=O (some centres unmarked) [I-211] | > 1000 | > 1000 | 50 to 100 |  | 
Cn1c(=O)n(C2CCC(=O)NC2=O)c2ccc(CCCOCC3CCN(C[C@H]4CC[C@H](n5cc(NC(=O)c6cnn7ccc(N8CCNCC8)nc67)c(C(F)F)n5)CC4)CC3)cc21 (some centres unmarked) [I-163] | < 10 |  | > 1000 |  | 
Cn1c(=O)n(C2CCC(=O)NC2=O)c2cccc(CCCOC3CCN(C[C@H]4CC[C@H](n5cc(NC(=O)c6cnn7ccc(N8C(=O)N[C@@H]9[C@H]8CCCC9(F)F)nc67)c(C(F)F)n5)CC4)CC3)c21 (some centres unmarked) [I-291] | 10 to 100 | 10 to 100 | < 50 |  | 
O=C1CCC(N2C(=O)c3cccc(N4CCC(CCCN5CCC(n6cc(NC(=O)c7cnn8ccc(N9CCOCC9)nc78)c(C(F)F)n6)CC5)CC4)c3C2=O)C(=O)N1 (centres unmarked) [I-228] | > 1000 |  | > 1000 |  | 
NC(=O)c1nn([C@H]2CC[C@H](C(=O)NCCOCCOCCNc3cccc4c3C(=O)N(C3CCC(=O)NC3=O)C4=O)CC2)cc1NC(=O)c1coc(-c2ccnc(NCC(F)(F)F)c2)n1 (single isomer, unassigned) [I-13, N-(3-carbamoyl-1-((1r,4r)-4-((2-(2-(2-((2-(2,6-dioxopiperidin-3-yl)-1,3-dioxoisoindolin-4-yl)amino)ethoxy)ethoxy)ethyl)carbamoyl)cyclohexyl)-1H-pyrazol-4-yl)-2-(2-((2,2,2-trifluoroethyl)amino)pyridin-4-yl)oxazole-4-carboxamide] | > 1000 |  | > 1000 |  | 
CN(CCOCCOCCOC12CC3CC(CC(C3)C1)C2)C[C@H]1CC[C@H](n2cc(NC(=O)c3cnn4ccc(N5CCNCC5)nc34)c(C(F)F)n2)CC1 [I-175] | > 1000 | > 1000 | > 1000 |  | 
O=C1CCC(N2C(=O)c3ccnc(NCCCOC4CCN(Cc5ccc(-n6cc(NC(=O)c7cnn8ccc(N9CCOCC9)nc78)c(C(F)F)n6)cc5)CC4)c3C2=O)C(=O)N1 (centres unmarked) [I-441] | 10 to 100 | 10 to 100 | > 1000 |  | 
O=C1CCC(n2c(=O)oc3cc(CCCOC4CCN(C[C@H]5CC[C@H](n6cc(NC(=O)c7cnn8ccc(N9CCNCC9)nc78)c(C(F)F)n6)CC5)CC4)ccc32)C(=O)N1 (some centres unmarked) [I-166] | 10 to 100 |  | > 1000 |  | 
O=C1CCC(N2Cc3c(OCc4ccc(CN5CCN(C[C@H]6CC[C@H](n7cc(NC(=O)c8coc(-c9ccnc(NCC%10CC%10)c9)n8)c(C(F)F)n7)CC6)CC5)cc4)cccc3C2=O)C(=O)N1 (some centres unmarked) [I-379] | > 1000 | > 1000 | 100 to 500 |  | 
Cn1c(=O)n(C2CCC(=O)NC2=O)c2ccc(CCCOCCOCCOCCOCC(=O)N3CCN([C@H]4CC[C@H](Nc5ncnn6ccc(C7CCOCC7)c56)CC4)CC3)cc21 (some centres unmarked) [I-20] | > 1000 | > 1000 | > 1000 |  | 
CC[C@@H]1[C@H](F)C(=O)N[C@@H]1COc1ncc(C#CC2CCN(CCOCCNc3cccc4c3C(=O)N(C3CCC(=O)NC3=O)C4=O)CC2)c2cc(C(N)=O)c(OC)cc12 (stereo partly drawn) [I-357, 4-[2-[1-[2-[2-[[2-(2,6-dioxo-3-piperidyl)-1,3-dioxo-isoindolin-4-yl]amino]ethoxy]ethyl]-4-piperidyl]ethynyl]-1-[[(2S,3S,4S)-3-ethyl-4-fluoro-5-oxo-pyrrolidin-2-yl]methoxy]-7-methoxy-isoquinoline-6-carboxamide] | > 1000 |  | > 1000 |  | 
CN(CCCNc1cccc2c1C(=O)N(C1CCC(=O)NC1=O)C2=O)C1CCN(C(=O)[C@H]2CC[C@H](n3cc(NC(=O)c4cnn5ccc(C6C[C@H]7C[C@@H]6CO7)nc45)c(C(F)F)n3)CC2)CC1 (some centres unmarked) [I-358] | > 1000 | 10 to 100 | 50 to 100 |  | 
CC[C@@H]1[C@H](F)C(=O)N[C@@H]1COc1ncc(C#C[C@H]2CC[C@H](CN3CCO[C@@H](COCCCNc4cccc5c4C(=O)N(C4CCC(=O)NC4=O)C5=O)C3)CC2)c2cc(C(N)=O)c(OC)cc12 (some centres unmarked) [I-342] | 100 to 1000 |  | 50 to 100 |  | 
CN(Cc1ccc(CCNc2cccc3c2C(=O)N(C2CCC(=O)NC2=O)C3=O)cc1)C[C@H]1CC[C@H](n2cc(NC(=O)c3cnn4ccc(N5C[C@H]6C[C@@H]5CO6)nc34)c(C(F)F)n2)CC1 (stereo partly drawn) [I-341, N-[3-(difluoromethyl)-1-[4-[[[4-[2-[[2-(2,6-dioxo-3-piperidyl)-1,3-dioxo-isoindolin-4-yl]amino]ethyl]phenyl]methyl-methyl-amino]methyl]cyclohexyl]pyrazol-4-yl]-5-[(1R,4R)-2-oxa-5-azabicyclo [2.2.1]heptan-5-yl] pyrazolo [1,5-a] pyrimidine-3-carboxamide] | 100 to 1000 | 10 to 100 | > 1000 |  | 
Cn1c(=O)n(C2CCC(=O)NC2=O)c2cccc(CN3CCC(CCN4CC(n5cc(NC(=O)c6coc(-c7ccnc(NCC8CC8)c7)n6)c(C(F)F)n5)C4)CC3)c21 (centres unmarked) [I-263] | 10 to 100 |  | < 50 |  | 
